Our source for the Activity and EC50 values is ChEMBL document CHEMBL1275398, “Side chain cyclization based on serine residues: synthesis, structure, and activity of a novel cyclic analogue of the parathyroid hormone fragment 1-11” (J Med Chem, 2010).

In experiment [1] the target is T1, Parathyroid hormone/parathyroid hormone-related peptide receptor (Homo sapiens) (UniProt Q03431).
T1 sequence (whole entry): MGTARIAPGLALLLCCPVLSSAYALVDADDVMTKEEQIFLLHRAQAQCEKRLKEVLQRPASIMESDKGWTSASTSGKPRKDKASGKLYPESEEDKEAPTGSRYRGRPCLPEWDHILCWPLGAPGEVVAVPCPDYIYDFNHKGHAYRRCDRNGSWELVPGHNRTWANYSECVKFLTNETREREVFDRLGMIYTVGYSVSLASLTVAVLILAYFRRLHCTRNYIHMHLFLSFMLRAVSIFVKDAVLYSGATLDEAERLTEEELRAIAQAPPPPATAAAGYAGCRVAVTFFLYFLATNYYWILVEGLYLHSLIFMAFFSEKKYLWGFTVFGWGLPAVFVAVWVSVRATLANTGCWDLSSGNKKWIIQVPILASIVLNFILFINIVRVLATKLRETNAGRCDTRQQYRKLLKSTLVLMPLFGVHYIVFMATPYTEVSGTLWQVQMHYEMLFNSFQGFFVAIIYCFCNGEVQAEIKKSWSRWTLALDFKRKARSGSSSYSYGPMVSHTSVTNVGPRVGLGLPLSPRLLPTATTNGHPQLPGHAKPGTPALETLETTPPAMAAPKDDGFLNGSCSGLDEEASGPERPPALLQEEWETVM
The experiment can be described thus: Agonist activity at recombinant PTHR1 expressed in HEK293 cells co-transfected with CRE-Luc assessed as maximal increase of adenylyl cyclase activity after 4.5 hrs by luciferase assay relative to control. It is filed as functional, cell-based.

Experiment [2] addresses T2, Parathyroid hormone/parathyroid hormone-related peptide receptor (Homo sapiens, UniProt Q03431).
T2 sequence (Q03431 whole entry): T1 sequence (whole entry)
The experiment can be described thus: Agonist activity at recombinant PTHR1 expressed in HEK293 cells co-transfected with CRE-Luc assessed as increase of adenylyl cyclase activity after 4.5 hrs by luciferase assay. It is filed as functional, cell-based.

Molecules are shown by their SMILES. *1 amine or outer side, *2 acyl side, *3 side chain or, on linkers, in order; H or OH if unused. Where a SMILES comes first, the peptide text is derived from it. Bridges are numbered along the chain shown (N, C = ends). [ ]: non-standard residue; d: D form. Adipoyl = O=C(CCCCC(=O)[*:2])[*:1]; hArg = N=C(N)NCCCC[C@H](N)C(=O)O; Nle = CCCC[C@H](N)C(=O)O; Aib = CC(C)(N)C(=O)O

Take `CCCC[C@H](NC(=O)[C@H](CC(C)C)NC(=O)[C@H](CCC(N)=O)NC(=O)[C@@H](NC(=O)[C@H](CCC(=O)O)NC(=O)C(C)(C)NC(=O)[C@@H](NC(=O)C(C)(C)N)C(C)C)[C@@H](C)CC)C(=O)N[C@@H](Cc1cnc[nH]1)C(=O)N[C@@H](CCC(N)=O)C(=O)N[C@@H](CCCCNC(=N)N)C(N)=O` (H-[Aib]V[Aib]EIQL[Nle]HQ[hArg]-NH2): the Activity in experiment [1] came to 90%.

Turning to `CCCC[C@@H]1NC(=O)[C@H](CC(C)C)NC(=O)[C@@H](NC(=O)[C@@H](NC(=O)[C@H](CCC(=O)O)NC(=O)C(C)(C)NC(=O)[C@@H](NC(=O)C(C)(C)N)C(C)C)[C@@H](C)CC)COC(=O)CCCCC(=O)OC[C@@H](C(=O)N[C@@H](CCCCNC(=N)N)C(N)=O)NC(=O)[C@H](Cc2cnc[nH]2)NC1=O` (H-[Aib]V[Aib]EISL[Nle]HS[hArg]-NH2; linker 6-10 via Adipoyl), the Activity in experiment [1] was 159%.

In the case of `CCCC[C@@H]1NC(=O)[C@H](CC(C)C)NC(=O)[C@@H](NC(=O)[C@@H](NC(=O)[C@H](CCC(=O)O)NC(=O)C(C)(C)NC(=O)[C@@H](NC(=O)C(C)(C)N)C(C)C)[C@@H](C)CC)CCCCNC(=O)CC[C@@H](C(=O)N[C@@H](CCCCNC(=N)N)C(N)=O)NC(=O)[C@H](Cc2cnc[nH]2)NC1=O` (H-[Aib]V[Aib]EIKL[Nle]HE[hArg]-NH2; lactam 6-10), the Activity in experiment [1] is 98%.

For the compound `CCCC[C@@H]1NC(=O)[C@H](CC(C)C)NC(=O)[C@@H](NC(=O)[C@@H](NC(=O)[C@H](CCC(=O)O)NC(=O)C(C)(C)NC(=O)[C@@H](NC(=O)C(C)(C)N)C(C)C)[C@@H](C)CC)CCCCNC(=O)CC[C@@H](C(=O)N[C@@H](CCCCN=C(N)N)C(N)=O)NC(=O)[C@H](Cc2cnc[nH]2)NC1=O` (H-[Aib]V[Aib]EIKL[Nle]HE[hArg]-NH2; lactam 6-10), the EC50 in experiment [2] was 1120 nM.

As to `CCCC[C@@H]1NC(=O)[C@H](CC(C)C)NC(=O)[C@@H](NC(=O)[C@@H](NC(=O)[C@H](CCC(=O)O)NC(=O)C(C)(C)NC(=O)[C@@H](NC(=O)C(C)(C)N)C(C)C)[C@@H](C)CC)COC(=O)CCCCC(=O)OC[C@@H](C(=O)N[C@@H](CCCCN=C(N)N)C(N)=O)NC(=O)[C@H](Cc2cnc[nH]2)NC1=O` (H-[Aib]V[Aib]EISL[Nle]HS[hArg]-NH2; linker 6-10 via Adipoyl), in experiment [2], the 50% effective concentration (EC50) came to 0.2 nM.

Consider `CCCC[C@H](NC(=O)[C@H](CC(C)C)NC(=O)[C@H](CCC(N)=O)NC(=O)[C@@H](NC(=O)[C@H](CCC(=O)O)NC(=O)C(C)(C)NC(=O)[C@@H](NC(=O)C(C)(C)N)C(C)C)[C@@H](C)CC)C(=O)N[C@@H](Cc1cnc[nH]1)C(=O)N[C@@H](CCC(N)=O)C(=O)N[C@@H](CCCCN=C(N)N)C(N)=O` (H-[Aib]V[Aib]EIQL[Nle]HQ[hArg]-NH2), for which, in experiment [2], the 50% effective concentration (EC50) was found to be 2.4 nM.

As usually defined, the EC50 is the concentration that produces a half-maximal response.
